Data on 17 compounds can be found in ChEMBL document CHEMBL1152734, “Novel E. coli beta-ketoacyl-acyl carrier protein synthase III inhibitors as targeted antibiotics” (Bioorg Med Chem, 2009).

A word on the Kd: it is the constant that tells how readily two partners part at equilibrium. Low readings indicate higher affinity, high ones lower affinity. The term MIC denotes the least concentration at which growth counts as inhibited. High values mean a need for much substance, low ones inhibition by little substance.

The test system of assay [1] is Escherichia coli K-12. The assay can be described thus: Binding affinity to Escherichia coli K12 KAS 3 expressed in Escherichia coli BL21 by STD-NMR spectroscopy.
Assay [2] deals with T1, Beta-ketoacyl-[acyl-carrier-protein] synthase III (Escherichia coli K-12, UniProt P0A6R0).
T1 sequence (P0A6R0 whole entry): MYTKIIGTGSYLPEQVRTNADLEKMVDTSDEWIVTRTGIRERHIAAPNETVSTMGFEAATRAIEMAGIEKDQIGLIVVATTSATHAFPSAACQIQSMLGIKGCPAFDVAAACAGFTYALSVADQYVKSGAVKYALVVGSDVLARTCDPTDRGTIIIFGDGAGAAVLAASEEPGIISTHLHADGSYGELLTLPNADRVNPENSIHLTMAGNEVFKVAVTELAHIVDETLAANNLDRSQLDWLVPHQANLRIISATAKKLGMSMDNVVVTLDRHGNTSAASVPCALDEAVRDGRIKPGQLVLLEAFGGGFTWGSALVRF
The assay can be described thus: Binding affinity to Escherichia coli K12 KAS 3 expressed in Escherichia coli BL21 by fluorescence quenching analysis.

Assay [3] deals with Enterococcus faecalis. The assay can be described thus: Antimicrobial activity against Enterococcus faecalis KCTC 2011 after 20 hrs by twofold serial broth dilution method. It counts as functional. Particulars: KCTC 2011, 20 h.
For assay [4], the system named is Escherichia coli. The assay can be described thus: Antimicrobial activity against Escherichia coli KCTC 1682 after 20 hrs by twofold serial broth dilution method. It counts as functional. Particulars: KCTC 1682, 20 h. In general terms: Dilution methods test growth across graded concentrations, often in twofold steps.
The test system of assay [5] is Staphylococcus aureus. The assay can be described thus: Antimicrobial activity against methicillin-resistant Staphylococcus aureus CCARM 3114 after 20 hrs by twofold serial broth dilution method. It counts as functional. As to conditions: CCARM 3114, 20 h.
Assay [6] has as its system Klebsiella pneumoniae. The assay can be described thus: Antimicrobial activity against Klebsiella pneumoniae KCTC 2242 after 20 hrs by twofold serial broth dilution method. It counts as functional. As to conditions: KCTC 2242, 20 h.
Assay [7] deals with Staphylococcus aureus. The assay can be described thus: Antimicrobial activity against Staphylococcus aureus KCTC 1621 after 20 hrs by twofold serial broth dilution method. It counts as functional. Particulars: KCTC 1621, 20 h.

Each structure is given as a SMILES string. Converted amounts (≈) assume the structure as drawn. The source made the active and inactive calls. The rule behind the calls is not given here.

Turning to `NS(=O)(=O)c1cccc(NC(=O)Nc2cccc(S(N)(=O)=O)c2)c1`, the outcome in assay [1] was inactive.

Take `COc1ccc(NC(=O)CC(CC(=O)O)c2ccccc2)cc1` (stereo unspecified): the result in assay [1] was inactive.

In the case of `Cc1cc(C)nc(NS(=O)(=O)c2ccc(NC(=O)c3sc4ccccc4c3Cl)cc2)n1`, the outcome in assay [1] was inactive.

`COc1ccc2c(c1)CCC/C2=N/Nc1nc(C(=O)NN)cs1`: in assay [1], the result was inactive.

As for `CC1(O)N(CCC(N)=O)C(=O)OC12CCCCC2` (stereo unspecified), the outcome in assay [1] was inactive.

Turning to `CCCc1cc(=O)oc2cc(OC(=O)c3ccccc3Cl)ccc12`, in assay [1], the outcome was inactive.

Take `CC(C)(CC(=O)O)CC(=O)NCCN1CCNC1=O`: in assay [2], the Kd was more than 1000 µM. The outcome in assay [1] was Active.

Consider `O=C(O)c1cc(NC(=O)c2ccccc2[N+](=O)[O-])ccc1O`, for which the Kd in assay [2] is more than 1000 µM. Further, the outcome in assay [1] was Active.

In the case of `C=CCn1c(SCC(=O)Nc2ccc(S(N)(=O)=O)cc2)nnc1-c1ccc(Cl)cc1`, in assay [1], the result was inactive.

As to `Cc1c(C(=O)O)cc(C(C)(C)C)n1CCSCc1c(F)cccc1Cl`, the result in assay [1] was inactive.

For `C=C/C(C)=C/[C@@]1(C)SC(=O)C(C)=C1O` [THIOLACTOMYCIN], the MIC in assay [3] was found to be 256 µg/mL (≈ 1220 µM); in assay [4] it was 128 µg/mL (≈ 609 µM); in assay [5] it was 128 µg/mL (≈ 609 µM); in assay [6] it was 256 µg/mL (≈ 1220 µM); in assay [7], 256 µg/mL (≈ 1220 µM). Also, binding in assay [2] was put at a Kd of 121 µM. In addition, in assay [1], the result was Active.

For `COc1ccc2c(c1OC)C(=O)OC2C(C)C(=O)c1ccc(O)c(O)c1` (stereo unspecified), the MIC in assay [3], in assay [4], in assay [5], in assay [6] and in assay [7] was more than 1020 µg/mL throughout. Besides, the Kd in assay [2] worked out at 1.22 µM. In addition, in assay [1], the outcome was Active.

Turning to `CC1CN(c2ccc(O)c(C(=O)O)c2)C(=S)NC1=O` (stereo unspecified), in assay [2], the dissociation constant Kd is more than 1000 µM. The result in assay [1] was Active.

`C=CCSC1Nn2c(nnc(C)c2=O)S1` (stereo unspecified): the Kd in assay [2] is more than 1000 µM. In assay [1], the outcome was Active.

In the case of `C/C(=N\Nc1nc(C)cs1)c1cccc(O)c1`, the MIC in assay [3] was 256 µg/mL (≈ 1040 µM); in assay [4], more than 1020 µg/mL; in assay [5] it was 256 µg/mL (≈ 1040 µM); in assay [6] it was more than 1020 µg/mL; in assay [7], 256 µg/mL (≈ 1040 µM). For the same compound, in assay [2], the Kd was more than 1000 µM. Moreover, the outcome in assay [1] was Active.

In the case of `Cn1ncc2c(Nc3ccccc3)nc(NCCCO)nc21`, the Kd in assay [2] worked out at 141 µM. Further, in assay [1], the result was Active.

Take `Oc1ccc(/C=N/C2CCCCC2)c(O)c1`: the MIC worked out at 256 µg/mL (≈ 1170 µM) in assay [3]; 128 µg/mL (≈ 584 µM) in assay [4]; 128 µg/mL (≈ 584 µM) in assay [5]; 256 µg/mL (≈ 1170 µM) in assay [6]; 256 µg/mL (≈ 1170 µM) in assay [7]. Further, in assay [2], the affinity, expressed as Kd, was 0.02 µM. Moreover, the result in assay [1] was Active.
